Measurements: patent US20090048301A1 (IMCLONE SYSTEMS INCORPORATED, priority 2003, published 2009)

test system: A431, human epidermoid carcinoma cells; experiment: Cell cycle analysis (FACS), mitotic arrest in G2/M; assay type: cell-based; settings: Homo sapiens, A-431, 24 h, read-out: FACS Assay: concentration required to achieve inhibition in FACS assay
Procedure: The cell cycle analysis was performed as follows. Cancer cells (A431, human epidennoid carcinoma cells) were maintained in culture in D-MEM media with 10% FBS and 1 mg/ml glutamate. Prior to experiment, cells were plated onto 6-well plates for a final density of 500,000 cells/well at the time of treatment. Cells were treated with the compounds of the invention at a concentration of about 0.01 to 1 μM final concentrations (final 0.1% DMSO) for 24 hours, then trypsinized, collected, rinsed in PBS (phosphate buffered saline), and fixed in 70% cold ethanol overnight at 4° C. The cells were then rinsed with PBS, resuspended in PBS with 0.2% Tween, RNAse was added (final 1 μg/ml), cells were incubated at 37° C. for 15 min, followed by addition of Propidium Iodide (final 50 μg/ml), and a 30 minute incubation at room temperature. DNA ploidy was analyzed using flow cytometers (Epics Excel, Beckman-Coulter, or Guava PCA-96, Guava Technologies) and mitotic arrest characterized by massive accumulation of cells in the G2/M phase of cell cycle.
Cancer cells (A431, human epidermoid cells) were maintained in culture in D-MEM media with 10% FBS and 1 mg/ml glutamate. Prior to experiment, cells are plated onto 6-well plates for a final density of 500,000 cells/well at the time of treatment. Cells were treated with compounds at 0.01-1 μM final concentrations (final […] DMS 0) for 24 hours, then trypsinized, collected, rinsed in PBS (phosphate buffered saline), and fixed in 70% cold ethanol overnight at 4° C. Cells were then rinsed with PBS, resuspended in PBS with 0.2% Tween, RNAse was added (final 1 μg/ml), cells were incubated at 37° C. for 15 min, followed by addition of Propidium Iodide (final 50 μg/ml), and a 30 minute incubation at room temperature. DNA ploidy was analyzed using cell sorters (Epics Excel, Beckman-Coulter, or Guava PCA-96, Guava Technologies) and mitotic arrest characterized by massive accumulation of cells in the G2/M phase of cell cycle.

Compared with `c1cnc(Nc2ccc3c(c2)OCO3)c(-c2nnc(Nc3ccc4c(c3)OCO4)[nH]2)c1` [Compound 32, Benzo[1,3]dioxol-5-yl-{3-[5-(benzo[1,3]dioxol-5-ylamino)-4H-[1,2,4]triazol-3-yl]-pyridin-2-yl}-amine], `c1coc(CNc2ncccc2-c2nnc(Nc3ccc4c(c3)OCO4)[nH]2)c1` [Compound 40, {3-[5-(Benzo[1,3]dioxol-5-ylamino)-4H-[1,2,4]triazol-3-yl]-pyridin-2-yl}-furan-2-ylmethyl-amine] is 10-fold lower in minimal effective concentration: 10 µM for the first, 1 µM for the second.

`c1cnc(NCc2ccncc2)c(-c2nnc(Nc3ccc4c(c3)OCO4)[nH]2)c1` [Compound 38, {3-[5-(Benzo[1,3]dioxol-5-ylamino)-4H-[1,2,4]triazol-3-yl]-pyridin-2-yl}-pyridin-4-ylmethyl-amine] and `COc1cccc(Nc2nnc(-c3cccnc3NCc3ccncc3)[nH]2)c1` [Compound 39, {3-[5-(3-Methoxy-phenylamino)-4H-[1,2,4]triazol-3-yl]-pyridin-2-yl}-pyridin-4-ylmethyl-amine] are the same in minimal effective concentration: 0.1 µM for the first, 0.1 µM for the second.

`COc1cccc(Nc2nnc(-c3cccnc3NCc3ccco3)[nH]2)c1` [Compound 42, Furan-2-ylmethyl-{3-[5-(3-methoxy-phenylamino)-4H-[1,2,4]triazol-3-yl]-pyridin-2-yl}-amine] was tested, and the minimal effective concentration was 10 µM.

test system: bovine tubulin; experiment: In vitro tubulin polymerization assay (turbidity at 340 nm); assay type: biochemical; settings: 10 μM compound, 30 minute data point, vs 1% DMSO control
How it was run: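 Bovine tubulin (97%, <3% MAPs) at 3 mg/ml final in G-PEM pH 7 with 1 mM GTP and 5% glycerol, added cold to compound wells at 37° C (1% DMSO final). A340 read each minute for 30 min; percent inhibition from 30-min point versus DMSO control.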

Going from `c1cnc(Nc2ccc3c(c2)OCO3)c(-c2nnc(Nc3ccc4c(c3)OCO4)[nH]2)c1` [Compound 32, Benzo[1,3]dioxol-5-yl-{3-[5-(benzo[1,3]dioxol-5-ylamino)-4H-[1,2,4]triazol-3-yl]-pyridin-2-yl}-amine] to `c1coc(CNc2ncccc2-c2nnc(Nc3ccc4c(c3)OCO4)[nH]2)c1` [Compound 40, {3-[5-(Benzo[1,3]dioxol-5-ylamino)-4H-[1,2,4]triazol-3-yl]-pyridin-2-yl}-furan-2-ylmethyl-amine], the “Tubulin Assay: percent inhibition at 10 μM based on 30 minute data” value (“Tubulin Assay: percent inhibition” below) rises from 54% to 71%.

Compared with `c1cnc(NCc2ccncc2)c(-c2nnc(Nc3ccc4c(c3)OCO4)[nH]2)c1` [Compound 38, {3-[5-(Benzo[1,3]dioxol-5-ylamino)-4H-[1,2,4]triazol-3-yl]-pyridin-2-yl}-pyridin-4-ylmethyl-amine], `COc1cccc(Nc2nnc(-c3cccnc3NCc3ccncc3)[nH]2)c1` [Compound 39, {3-[5-(3-Methoxy-phenylamino)-4H-[1,2,4]triazol-3-yl]-pyridin-2-yl}-pyridin-4-ylmethyl-amine] is higher in “Tubulin Assay: percent inhibition” value: 77% for the first, 83% for the second.

Compared with `COc1cccc(Nc2nnc(-c3cccnc3NCc3ccco3)[nH]2)c1` [Compound 42, Furan-2-ylmethyl-{3-[5-(3-methoxy-phenylamino)-4H-[1,2,4]triazol-3-yl]-pyridin-2-yl}-amine], `COc1cccc(Nc2ncc(-c3ccccc3OCc3cccnc3)o2)c1` [Compound 257, (3-Methoxy-phenyl)-{5-[2-(pyridin-3-ylmethoxy)-phenyl]-oxazol-2-yl}-amine] is lower in “Tubulin Assay: percent inhibition” value: 69% for the first, 27% for the second.

Compared with `CN(C)c1ccc(-c2nnc(Nc3ccc4c(c3)OCCO4)o2)c(NCc2ccncc2)c1` [Compound 231], `CN(C)c1ccc(-c2nnc(Nc3ccc4c(c3)OCCO4)o2)c(NCc2cncnc2)c1` [Compound 234, (2,3-Dihydro-benzo[1,4]dioxin-6-yl)-(5-{4-dimethylamino-2-[(pyrimidin-5-ylmethyl)-amino]-phenyl}-[1,3,4]oxadiazol-2-yl)-amine] is higher in “Tubulin Assay: percent inhibition” value: 28% for the first, 30% for the second.

First: CN(C)c1ccc(-c2nnc(Nc3ccc4c(c3)OCCO4)o2)c(NCc2ccc3c(c2)OCO3)c1 [Compound 232, (5-{2-[(Benzo[1,3]dioxol-5-ylmethyl)-amino]-4-dimethylamino-phenyl}-[1,3,4]oxadiazol-2-yl)-(2,3-dihydro-benzo[1,4]dioxin-6-yl)-amine]
Second: CN(C)c1ccc(-c2nnc(Nc3ccc4c(c3)OCCO4)o2)c(NCc2ccc(F)c(F)c2)c1 [Compound 233, {5-[2-(3,4-Difluoro-benzylamino)-4-dimethylamino-phenyl]-[1,3,4]oxadiazol-2-yl}-(2,3-dihydro-benzo[1,4]dioxin-6-yl)-amine]
The “Tubulin Assay: percent inhibition” value of the first is lower: 26% for the first, 40% for the second.

Going from `COc1cc(CNc2cc(N3CCN(C)CC3)ccc2-c2nnc(Nc3ccc4c(c3)OCCO4)o2)cc(OC)c1` [Compound 235, (2,3-Dihydro-benzo[1,4]dioxin-6-yl)-{5-[2-(3,5-dimethoxy-benzylamino)-4-(4-methyl-piperazin-1-yl)-phenyl]-[1,3,4]oxadiazol-2-yl}-amine] to `CN1CCN(c2ccc(-c3nnc(Nc4ccc5c(c4)OCCO5)o3)c([N+](=O)[O-])c2)CC1` [Compound 236, (2,3-Dihydro-benzo[1,4]dioxin-6-yl)-{5-[4-(4-methyl-piperazin-1-yl)-2-nitro-phenyl]-[1,3,4]oxadiazol-2-yl}-amine], the “Tubulin Assay: percent inhibition” value rises from 24% to 59%.

Compared with `Nc1ccccc1-c1nnc(Nc2ccc3c(c2)OCO3)o1` [Compound 237a, [5-(2-Amino-phenyl)-[1,3,4]oxadiazol-2-yl]-benzo[1,3]dioxol-5-yl-amine], `Cc1cc(C)cc(CS(=O)(=O)Nc2ccccc2-c2nnc(Nc3ccc4c(c3)OCO4)o2)c1` [Compound 240, N-{2-[5-(Benzo[1,3]dioxol-5-ylamino)-[1,3,4]oxadiazol-2-yl]-phenyl}-C-(3,5-dimethyl-phenyl)-methanesulfonamide] is lower in “Tubulin Assay: percent inhibition” value: 53% for the first, 20% for the second.

First: COc1ccc(S(=O)(=O)Nc2ccccc2-c2nnc(Nc3ccc4c(c3)OCO4)o2)cc1OC [Compound 238, N-{2-[5-(Benzo[1,3]dioxol-5-ylamino)-[1,3,4]oxadiazol-2-yl]-phenyl}-3,4-dimethoxy-benzenesulfonamide]
Second: O=S(=O)(Nc1ccccc1-c1nnc(Nc2ccc3c(c2)OCO3)o1)c1cccc(OC(F)(F)F)c1 [Compound 239, N-{2-[5-(Benzo[1,3]dioxol-5-ylamino)-[1,3,4]oxadiazol-2-yl]-phenyl}-3-trifluoromethoxy-benzenesulfonamide]
The “Tubulin Assay: percent inhibition” value of the first is higher: 65% for the first, 49% for the second.

First: N#Cc1ccc(S(=O)(=O)Nc2ccccc2-c2nnc(Nc3ccc4c(c3)OCCO4)o2)cc1 [Compound 242, 4-Cyano-N-{2-[5-(2,3-dihydro-benzo[1,4]dioxin-6-ylamino)-[1,3,4]oxadiazol-2-yl]-phenyl}-benzenesulfonamide]
Second: c1cncc(CNc2ccccc2-c2cnc(Nc3ccc4c(c3)OCCO4)o2)c1 [Compound 248, (2,3-Dihydro-benzo[1,4]dioxin-6-yl)-(5-{2-[(pyridin-3-ylmethyl)-amino]-phenyl}-oxazol-2-yl)-amine]
The “Tubulin Assay: percent inhibition” value of the first is higher: 92% for the first, 79% for the second.

First: COc1cc(Nc2ncccc2-c2nnc(NS(=O)(=O)c3cccc(OC)c3)o2)cc(OC)c1 [Compound 243, N-{5-[2-(3,5-Dimethoxy-phenylamino)-pyridin-3-yl]-[1,3,4]oxadiazol-2-yl}-3-methoxy-benzenesulfonamide]
Second: COc1cc(Nc2ncccc2-c2nnc(N)o2)cc(OC)c1 [Compound 243a, [3-(5-Amino-[1,3,4]oxadiazol-2-yl)-pyridin-2-yl]-(3,5-dimethoxy-phenyl)-amine]
The “Tubulin Assay: percent inhibition” value of the first is higher: 55% for the first, 46% for the second.

Compared with `c1ccc(-c2cnc(Nc3ccc4c(c3)OCCO4)o2)c(NCc2ccc3c(c2)OCCO3)c1` [Compound 245, (2,3-Dihydro-benzo[1,4]dioxin-6-yl)-(5-{2-[(2,3-dihydro-benzo[1,4]dioxin-6-ylmethyl)-amino]-phenyl}-oxazol-2-yl)-amine], `Fc1ccc(CNc2ccccc2-c2cnc(Nc3ccc4c(c3)OCCO4)o2)cc1F` [Compound 247, {5-[2-(3,4-Difluoro-benzylamino)-phenyl]-oxazol-2-yl}-(2,3-dihydro-benzo[1,4]dioxin-6-yl)-amine] is higher in “Tubulin Assay: percent inhibition” value: 93% for the first, 94% for the second.

First: COc1cccc(Nc2ncc(-c3ccccc3NCc3cc(OC)cc(OC)c3)o2)c1 [Compound 251, {5-[2-(3,5-Dimethoxy-benzylamino)-phenyl]-oxazol-2-yl}-(3-methoxy-phenyl)-amine]
Second: COc1cccc(Nc2ncc(-c3ccccc3NCc3ccc(F)c(F)c3)o2)c1 [Compound 252, {5-[2-(3,4-Difluoro-benzylamino)-phenyl]-oxazol-2-yl}-(3-methoxy-phenyl)-amine]
The “Tubulin Assay: percent inhibition” value of the first is higher: 30% for the first, 27% for the second.

Compared with `c1ccc(-c2cnc(Nc3ccc4c(c3)OCCO4)o2)c(OCc2ccncc2)c1` [Compound 253, (2,3-Dihydro-benzo[1,4]dioxin-6-yl)-{5-[2-(pyridin-4-ylmethoxy)-phenyl]-oxazol-2-yl}-amine], `c1cncc(COc2ccccc2-c2cnc(Nc3ccc4c(c3)OCCO4)o2)c1` [Compound 254, (2,3-Dihydro-benzo[1,4]dioxin-6-yl)-{5-[2-(pyridin-3-ylmethoxy)-phenyl]-oxazol-2-yl}-amine] is higher in “Tubulin Assay: percent inhibition” value: 44% for the first, 95% for the second.

First: COc1cccc(Nc2ncc(-c3ccccc3OCc3ccncc3)o2)c1 [Compound 256, (3-Methoxy-phenyl)-{5-[2-(pyridin-4-ylmethoxy)-phenyl]-oxazol-2-yl}-amine]
Second: COCCCOc1ccccc1-c1cnc(Nc2cccc(OC)c2)o1 [Compound 258, (3-Methoxy-phenyl)-{5-[2-(3-methoxy-propoxy)-phenyl]-oxazol-2-yl}-amine]
The “Tubulin Assay: percent inhibition” value of the first is higher: 50% for the first, 47% for the second.
